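In this assay, cells in 96-well plates receive the compound at five concentrations for 48 hours. Endpoints are linearly interpolated between the surrounding concentrations. TGI: concentration producing complete growth inhibition.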

What all share (assay): NCI tumour cell line growth inhibition, 48 h
In assay [1] the test system is U251 CNS.
Assay [2] deals with NCI-H522 lung.
Assay [3] has as its system OVCAR-5 ovarian.
Assay [4] relates to SK-MEL-2 melanoma.
Assay [5] deals with NCI-H460 lung.
The test system of assay [6] is COLO 205 colon.
The test system of assay [7] is SNB-19 CNS.
Assay [8] concerns HS 578T breast.
The subject of assay [9] is CCRF-CEM leukemia.
Assay [10] deals with IGROV1 ovarian.
Assay [11] has as its system DU-145 prostate.
For assay [12], the system named is ACHN renal.
The test system of assay [13] is PC-3 prostate.
Assay [14] relates to RPMI-8226 leukemia.
Assay [15] deals with NCI-H226 lung.
In assay [16] the test system is SK-MEL-5 melanoma.
In assay [17] the test system is MOLT-4 leukemia.
Assay [18] has as its system HCC-2998 colon.
Assay [19] relates to K-562 leukemia.
Assay [20] deals with SR leukemia.

`CC1=C(O)C(=O)C[C@]2(C)[C@H]3CC=C4[C@@H]5CC(C)(C)CC[C@@H]5C(=O)[C@H](O)[C@@]4(C)[C@]3(C)CC[C@@H]12`: the TGI in [1], in [2], in assay [3], in assay [4], in assay [5] and in [6] was over 50 µM in each case. Moreover, the TGI in [7], in assay [8], in [9], in assay [10], in [11] and in assay [12] was over 50 µM throughout. Also, the TGI in [13], in assay [14], in assay [15], in assay [16], in assay [17] and in [18] was over 50 µM throughout.
On to `OCC1OC(Oc2cc(O)cc(/C=C/c3ccc(O)cc3)c2)C(O)C(O)C1O` (configuration not stated), for which the TGI in assay [1], in [2], in assay [3], in assay [4], in [5] and in assay [7] was over 100 µM each time. In addition, the TGI in [8], in assay [9], in [19], in assay [10], in assay [20] and in [11] was over 100 µM throughout. For the same compound, the TGI in assay [12], in [13], in assay [14], in [15], in [16] and in assay [17] was over 100 µM in each case.
As to `Cc1nc(Nc2ccc(F)cc2)c2sc(=S)n(-c3ccc(F)cc3)c2n1`, the TGI worked out at 27.8 µM in [1]; 30.1 µM in assay [2]; 36.3 µM in assay [3]; 28.6 µM in assay [4]; 28.8 µM in assay [5]; 27.5 µM in assay [6]. Also, the TGI was 27.8 µM in assay [7]; 37.7 µM in assay [8]; over 100 µM in assay [19]; 22.4 µM in assay [10]; over 100 µM in assay [20]; 26.2 µM in assay [11]. Further, the TGI in assay [12] was found to be 27 µM; in [13], 35.6 µM; in assay [14] it was 21.9 µM; in assay [15], 33.5 µM; in [16] it was 27.7 µM; in [18] it was 24.7 µM.
Consider `CCOC(=O)c1cc(C2CCN(CC(C)CC)C2=S)c(-c2cc(C)no2)[nH]1` (configuration not stated), for which the TGI in assay [1], in [3], in assay [4], in assay [5], in assay [6] and in assay [7] was over 100 µM throughout. For the same compound, the TGI in assay [8], in [9], in assay [19], in [10], in assay [20] and in assay [11] was over 100 µM throughout. In addition, the TGI in [13], in assay [14], in [15], in assay [16], in assay [17] and in [18] was over 100 µM throughout.
For the compound `N#CCCSC1SC(=C2SC3=C(SCCS3)S2)SC1SCCC#N` (configuration not stated), the TGI in [1], in assay [2], in [3], in [4], in assay [5] and in assay [6] was over 100 µM in each case. Further, the TGI in [7], in assay [8], in [9], in [19], in assay [10] and in [20] was over 100 µM in each case. In addition, the TGI in [11], in [12], in [13], in [16], in assay [17] and in [18] was over 100 µM in each case.
With `C(=Nc1ccc(-c2cc(-c3ccccc3)nc3ccc4ccccc4c23)cc1)c1ccccc1`, the TGI in [1] was over 100 µM; in assay [3], over 100 µM; in assay [5] it was over 100 µM; in assay [6] it was 42.6 µM; in [7] it was 58 µM; in assay [8], 68.6 µM. The TGI was over 100 µM in [9]; over 100 µM in [19]; over 100 µM in assay [10]; over 100 µM in assay [20]; 68.6 µM in assay [11]; over 100 µM in assay [12]. Also, the TGI in assay [13] is over 100 µM; in assay [14] it was over 100 µM; in [15], 66.3 µM; in assay [16] it was 42.3 µM; in assay [17], over 100 µM; in assay [18], 26.6 µM.
In the case of `CCCCn1cnnc1NS(=O)(=O)c1cc(C)c(Cl)cc1SCC(=O)O`, the TGI in [1], in [2], in assay [3], in assay [4], in [5] and in assay [6] was over 10 µM in each case. Further, the TGI in [7], in [8], in assay [9], in [19], in [10] and in assay [11] was over 10 µM throughout. Besides, the TGI in [12], in [13], in [14], in assay [15], in [16] and in assay [17] was over 10 µM throughout. For the same compound, the TGI in assay [18] was over 10 µM.
As for `COc1ccc(C(=O)/C=C/c2ccc(OCCSCCCCCCCCCCSCCOc3ccc(/C=C/C(=O)c4ccc(OC)cc4)cc3)cc2)cc1`, the TGI in [1], in assay [4], in assay [5], in assay [6], in [7] and in assay [8] was over 100 µM in each case. The TGI in [9], in [19], in [10], in [20], in assay [11] and in [12] was over 100 µM throughout. Further, the TGI in [13], in assay [14], in assay [15], in assay [16], in [17] and in assay [18] was over 100 µM throughout.
Regarding `CSc1nc(-c2ccc(C)cc2)c(C#N)c(=O)[nH]1`, the TGI in assay [1], in [2], in assay [3], in assay [4], in [5] and in assay [6] was over 100 µM each time. In addition, the TGI in assay [7], in assay [8], in assay [9], in [19], in [10] and in assay [11] was over 100 µM throughout. The TGI in assay [12], in assay [13], in assay [14], in assay [15], in assay [16] and in assay [17] was over 100 µM each time. Besides, the TGI in [18] was over 100 µM.
Regarding `O=C(Cn1cc(F)c(=O)[nH]c1=O)C12CC3CC(CC(C3)C1)C2`, the TGI in assay [1], in assay [2], in assay [3], in assay [4], in [5] and in [6] was over 100 µM each time. For the same compound, the TGI in assay [7], in assay [8], in assay [9], in assay [19], in assay [10] and in assay [20] was over 100 µM in each case. Moreover, the TGI in assay [11], in [12], in assay [13], in assay [14], in assay [16] and in assay [17] was over 100 µM in each case. This compound also registered a TGI in assay [18] of over 100 µM.
With `COc1cccc(Nc2nc(-c3cccs3)nc3ccc(Br)cc23)c1`, the TGI in [1], in assay [2], in assay [3], in assay [4], in assay [5] and in assay [6] was over 100 µM throughout. For the same compound, the TGI in assay [7] is 78.7 µM; in assay [8] it was over 100 µM; in assay [9], over 100 µM; in [19], over 100 µM; in assay [10], over 100 µM; in assay [20], over 100 µM. In addition, the TGI in assay [11], in assay [12], in [13], in [14], in [15] and in assay [16] was over 100 µM throughout.
Turning to `COc1ccc(C2C3CCc4ccccc4C3=NN2S(=O)(=O)c2ccc(Cl)cc2)cc1` (configuration not stated), the TGI in [1] is 60.8 µM; in assay [2], 37.6 µM; in assay [3], over 100 µM; in [4] it was over 100 µM; in assay [5] it was over 100 µM; in assay [6], 23.1 µM. The TGI in [7] is over 100 µM; in assay [8] it was over 100 µM; in assay [9] it was over 100 µM; in [19], 41.8 µM; in assay [10], 52.9 µM; in assay [20], 25.4 µM. Further, the TGI is over 100 µM in [11]; 69.2 µM in [12]; over 100 µM in [13]; 51.3 µM in assay [14]; over 100 µM in assay [15]; over 100 µM in [16]. For the same compound, the TGI in assay [17] was over 100 µM.
Turning to `C#CCOCn1ccc(=O)[nH]c1=O`, the TGI in assay [1], in assay [3], in assay [4], in assay [5], in assay [6] and in [7] was over 100 µM throughout. Also, the TGI in assay [8], in assay [9], in assay [19], in assay [10], in assay [20] and in assay [11] was over 100 µM in each case. The TGI in assay [12], in assay [13], in assay [14], in assay [15], in [16] and in assay [17] was over 100 µM throughout. Besides, the TGI in assay [18] was over 100 µM.
With `O=C1CCCCC1=C(I)I`, the TGI in [1] came out at 30.2 µM; in assay [3], 31.6 µM; in [4] it was 31.8 µM; in assay [5] it was 44.1 µM; in assay [6], 28.8 µM; in assay [7] it was 24.9 µM. Also, the TGI in assay [8] was over 100 µM; in assay [9], 73.3 µM; in assay [19], 95.8 µM; in assay [10], 30.4 µM; in assay [20], over 100 µM; in [11] it was 34.1 µM. The TGI is 31.7 µM in assay [12]; 30.9 µM in assay [13]; 53.4 µM in [14]; 42.7 µM in assay [15]; 33 µM in assay [16]; 58.3 µM in assay [17]. Further, in assay [18], the TGI worked out at 29.5 µM.
As to `Cc1cccc2c(=O)c3c(O)cc(O)cc3[nH]c12`, the TGI in [1], in assay [2], in assay [3], in assay [4], in [5] and in assay [6] was over 10 µM throughout. Moreover, the TGI in assay [7], in assay [8], in [9], in [19], in [10] and in assay [11] was over 10 µM throughout. The TGI in [12], in assay [13], in assay [14], in assay [15], in assay [16] and in assay [17] was over 10 µM each time. For the same compound, the TGI in assay [18] was over 10 µM.

The record behind these values is PubChem BioAssay (NCI).
